Target: T1, KDM5B enzyme (Homo sapiens, UniProt Q9UGL1)
T1 construct: Reaction Biology Corp (named for the assay, not expressly for the enzyme)
Assay: KDM5B HTRF (TR-FRET) demethylase inhibition assay
Assay type: biochemical
Conditions: 1.2 nM KDM5B, 30 nM Biotin-H3K4Me3 1-21 substrate, 10 point dose-response
Description: Ten point dose-response curves for the compounds of Examples 1-135 were determined using a homogeneous time resolved fluorescence (HTRF) assay (Reaction Biology Corp, Malvern, Pa.). This assay combines fluorescence resonance energy transfer (FRET) with time resolve (TR) measurements (TR-FRET). The KDM5B α-ketoglutarate-dependent demethylase activity is calculated by measuring demethylation of a biotin labeled histone tri-methylated H3K4 substrate using an europium-cryptate (Eu)-labeled antibody donor specific for dimethylated histone H3K4 and a Streptavidin-XL665 acceptor that binds to the biotin group of substrate, and detecting FRET by exciting the reaction mixture at 320 nm and reading dual emissions at 615 nm and 665 nm.
Briefly, compounds disclosed herein were solubilized in DMSO and a series of 10, three-fold serial dilutions were made for each compound in 100% DMSO. The initial starting concentration for the serial dilutions of each compound was 10 μM or 100 μM. Control samples lacking compound, KDM5B enzyme or various reaction components also were prepared and processed in parallel with compound test samples.
An aliquot of each serial dilution of test compound was added to a 384 well plate (Corning Cat #3572) containing 1.2 nM KDM5B enzyme suspended in 50 mM Hepes, pH7.5, 50 mM NaCl, 0.01% Tween 20, 0.1% BSA, and 1% DMSO (final concentrations) in a 10 microliter reaction volume using a LABCYTE ECHO liquid handler. The samples were mixed, subjected to centrifugation and the plate was pre-incubated at room temperature for 15 minutes (min), to which 30 nM Biotin-H3K4Me3 1-21 substrate (Anaspec, Freemont Calif., Cat #64192), 20 μM Fe(II) and 20 μM α-ketoglutarate co-factors, and 100 μM Ascorbate were added to initiate the enzymatic reaction. The reaction mixture was incubated at room temperature for 45 minutes. A 10 μl aliquot of a detection mixture of Eu-labeled anti-histone H3K4Me2 antibody (CisBIO, Bedford Mass., Cat #610AXLB) and Streptavidin-XL665 (CisBIO, Bedford Mass., Cat #610 SAXLB) in 200 mM potassium fluoride and 10 mM EDTA was added and kinetic measurements were read at 5 minute intervals for a period of 30 minutes using an Envision Multiplate Reader (PerkinElmer Model 2102; excitation at 320 nm and emission reads at 615 nm and 665 nm). The IC50 value for each compound was determined from the 665/615 ratio obtained for each 10 point dose-response curve using GraphPad Prism 4 software with a sigmodial dose response.

T1 sequence (Q9UGL1 whole entry): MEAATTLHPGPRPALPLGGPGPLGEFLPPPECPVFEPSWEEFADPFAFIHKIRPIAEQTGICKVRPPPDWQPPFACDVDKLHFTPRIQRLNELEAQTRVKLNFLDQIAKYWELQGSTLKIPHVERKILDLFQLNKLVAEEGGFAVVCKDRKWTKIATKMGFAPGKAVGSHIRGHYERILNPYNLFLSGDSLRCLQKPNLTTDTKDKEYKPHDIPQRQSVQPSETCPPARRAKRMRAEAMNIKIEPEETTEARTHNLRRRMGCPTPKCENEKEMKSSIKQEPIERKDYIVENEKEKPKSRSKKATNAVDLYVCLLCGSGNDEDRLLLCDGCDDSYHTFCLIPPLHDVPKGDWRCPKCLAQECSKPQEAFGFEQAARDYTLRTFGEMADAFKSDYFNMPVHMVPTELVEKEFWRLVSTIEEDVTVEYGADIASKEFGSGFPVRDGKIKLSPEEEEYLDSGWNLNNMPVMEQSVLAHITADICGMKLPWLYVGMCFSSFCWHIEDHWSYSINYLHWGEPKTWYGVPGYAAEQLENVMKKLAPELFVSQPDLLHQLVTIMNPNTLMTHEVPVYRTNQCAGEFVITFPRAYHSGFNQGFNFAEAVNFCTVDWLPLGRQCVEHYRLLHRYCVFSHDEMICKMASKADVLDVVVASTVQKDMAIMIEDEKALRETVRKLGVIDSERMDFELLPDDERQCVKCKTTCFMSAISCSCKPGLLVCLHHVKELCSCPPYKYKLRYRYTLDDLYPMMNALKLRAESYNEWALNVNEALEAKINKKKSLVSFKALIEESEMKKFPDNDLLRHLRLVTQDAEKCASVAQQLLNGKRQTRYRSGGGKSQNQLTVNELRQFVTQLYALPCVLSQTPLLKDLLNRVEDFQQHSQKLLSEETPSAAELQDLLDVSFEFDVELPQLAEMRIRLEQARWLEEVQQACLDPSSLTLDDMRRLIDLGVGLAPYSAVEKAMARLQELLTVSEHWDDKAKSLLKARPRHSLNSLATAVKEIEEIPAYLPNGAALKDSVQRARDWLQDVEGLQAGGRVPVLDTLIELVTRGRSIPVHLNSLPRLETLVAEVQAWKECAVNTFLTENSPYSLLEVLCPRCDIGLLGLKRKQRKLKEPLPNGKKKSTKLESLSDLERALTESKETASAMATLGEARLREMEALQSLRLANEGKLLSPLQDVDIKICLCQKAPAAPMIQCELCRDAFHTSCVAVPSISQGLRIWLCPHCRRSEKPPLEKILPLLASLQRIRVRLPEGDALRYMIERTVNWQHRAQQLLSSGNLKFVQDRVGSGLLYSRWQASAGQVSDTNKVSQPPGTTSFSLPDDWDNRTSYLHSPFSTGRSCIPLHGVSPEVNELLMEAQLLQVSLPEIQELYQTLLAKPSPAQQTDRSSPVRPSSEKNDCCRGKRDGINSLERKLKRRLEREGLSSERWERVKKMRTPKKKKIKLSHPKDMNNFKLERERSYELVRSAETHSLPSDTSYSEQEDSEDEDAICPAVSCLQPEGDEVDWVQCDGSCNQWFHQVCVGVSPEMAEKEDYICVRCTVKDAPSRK

COc1ccc(F)c(CNc2ccc3nccn3c2C(=O)O)c1F [Example 11] and Cc1ccc(F)c(CNc2ccc3nccn3c2C(=O)O)c1F [Example 35] cannot be ordered by IC50: over 1000 nM for the first, over 1000 nM for the second.

O=C(O)c1c(NCc2ccc(Oc3ccc(F)cc3)cc2)ccc2nccn12 [Example 54] and CC(C)Oc1ccc(CNc2ccc3nccn3c2C(=O)O)cc1 [Example 28] cannot be ordered by IC50: over 1000 nM for the first, over 1000 nM for the second.

Compared with O=C(O)c1c(NCc2cc(C(F)(F)F)ccc2Cl)ccc2nccn12 [Example 5], O=C(O)c1c(NCc2ccc(C(F)(F)F)cc2F)ccc2nccn12 [Example 41] is lower in IC50: over 1000 nM for the first, 500 to 1000 nM for the second.

O=C(O)c1c(NCc2c(F)cccc2Cl)ccc2nccn12 [Example 39] and O=C(O)c1c(NCc2c(F)cccc2F)ccc2nccn12 [Example 36] cannot be ordered by IC50: over 1000 nM for the first, over 1000 nM for the second.

COc1cc(Cl)ccc1CNc1ccc2nc(C)cn2c1C(=O)O [Example 119] and COc1ccc(Cl)cc1CNc1ccc2nc(C)cn2c1C(=O)O [Example 114] cannot be ordered by IC50: over 1000 nM for the first, over 1000 nM for the second.

Compared with O=C(O)c1c(NCc2cc(Cl)ccc2Cl)ccc2nccn12 [Example 34], O=C(O)c1c(NCc2cc(Cl)ccc2F)ccc2nccn12 [Example 66] is higher in IC50: 500 to 1000 nM for the first, over 1000 nM for the second. The first is the more potent here.

O=C(O)c1c(NCc2ccc(-c3cccs3)cc2)ccc2nccn12 [Example 53] and O=C(O)c1c(NCc2ccc(-c3ccccc3)cc2)ccc2nccn12 [Example 7] cannot be ordered by IC50: over 1000 nM for the first, over 1000 nM for the second.

Compared with O=C(O)c1c(NCc2ccc3c(c2)OC(F)(F)O3)ccc2nccn12 [Example 77], O=C(O)c1c(NCc2ccc3c(c2)OCCO3)ccc2nccn12 [Example 80] is higher in IC50: 500 to 1000 nM for the first, over 1000 nM for the second.

COc1cc(Cl)ccc1CNc1ccc2nccn2c1-c1nn[nH]n1 [Example 111] and COc1cc(Cl)ccc1CNc1ccc2nccn2c1C#N [Example 110] cannot be ordered by IC50: over 1000 nM for the first, over 1000 nM for the second.

O=C(O)c1c(NCC2CCCc3cc(Oc4ccccc4)ccc32)ccc2nccn12 (centres unmarked) [Example 115] and O=C(O)c1c(NCc2cccc(-c3ccccc3)c2)ccc2nccn12 [Example 52] cannot be ordered by IC50: over 1000 nM for the first, over 1000 nM for the second.

Cn1nccc1-c1cccc(CNc2ccc3nccn3c2C(=O)O)c1 [Example 127] and O=C(O)c1c(NCc2cccc(-c3cccnc3)c2)ccc2nccn12 [Example 126] cannot be ordered by IC50: at most 500 nM for the first, 500 to 1000 nM for the second.

Compared with CCN1CCN(c2ccc(CNc3ccc4nccn4c3C(=O)O)c3c2CCCC3)CC1 [Example 124], CN1CCN(c2ccccc2CNc2ccc3nccn3c2C(=O)O)CC1 [Example 32] is lower in IC50: over 1000 nM for the first, at most 500 nM for the second. The second is the more potent here.

COc1ccccc1Oc1cc(C(=O)O)n2ccnc2c1 [Example 108] and COc1cc(Cl)ccc1COc1cc(C(=O)O)n2ccnc2c1 [Example 123] cannot be ordered by IC50: over 1000 nM for the first, over 1000 nM for the second.

First: O=C(O)c1c(NCc2cccc(OC(F)F)c2)ccc2nccn12 [Example 19]
Second: COc1cccc(CNc2ccc3nccn3c2C(=O)O)c1 [Example 94]
The IC50 of the first is higher: over 1000 nM for the first, at most 500 nM for the second.

Compared with O=C(O)c1c(NCc2ccccc2C(F)(F)F)ccc2nccn12 [Example 2], O=C(O)c1c(NCc2cccc(C(F)(F)F)c2F)ccc2nccn12 [Example 16] is higher in IC50: 500 to 1000 nM for the first, over 1000 nM for the second.

O=C(O)c1cnc2cc(Oc3ccc4ccncc4c3)ccn12 [Example 105] and O=C(O)c1cc(Oc2ccc3ccncc3c2)cc2nccn12 [Example 109] cannot be ordered by IC50: over 1000 nM for the first, over 1000 nM for the second.

Going from O=C(O)c1c(NCc2ccc(N3CCCCC3)cc2)ccc2nccn12 [Example 27] to CN1CCN(c2ccc(CNc3ccc4nccn4c3C(=O)O)cc2)CC1 [Example 21], the IC50 falls from over 1000 nM to at most 500 nM.

First: COc1cc(Cl)ccc1OCc1cc(C(=O)O)n2ccnc2c1 [Example 129]
Second: COc1ccc(Cl)cc1CNc1cc(C(=O)O)n2ccnc2c1 [Example 117]
The IC50 of the first is lower: at most 500 nM for the first, over 1000 nM for the second. The first is the more potent here.

O=C(O)c1c(NCc2cccc(OC(F)(F)F)c2)ccc2nccn12 [Example 89] and O=C(O)c1c(NCc2cccc(F)c2)ccc2nccn12 [Example 50] cannot be ordered by IC50: over 1000 nM for the first, over 1000 nM for the second.

O=C(O)c1c(NCc2cc(F)c(F)c(F)c2)ccc2nccn12 [Example 87] and COc1c(F)cc(CNc2ccc3nccn3c2C(=O)O)cc1F [Example 46] cannot be ordered by IC50: over 1000 nM for the first, over 1000 nM for the second.

Compared with O=C(O)c1c(NCc2ccc(-n3ccnc3)cc2)ccc2nccn12 [Example 78], O=C(O)c1c(NCc2ccc(Cl)cc2)ccc2nccn12 [Example 74] is higher in IC50: at most 500 nM for the first, over 1000 nM for the second.

Compared with O=C(O)c1c(NCc2ccccc2Cl)ccc2nccn12 [Example 15], O=C(O)c1c(NCc2cccc(Cl)c2Cl)ccc2nccn12 [Example 9] is higher in IC50: 500 to 1000 nM for the first, over 1000 nM for the second.

CCOc1ccccc1CNc1ccc2nccn2c1C(=O)O [Example 40] and O=C(O)c1c(NCc2ccccc2Cl)ccc2nccn12 [Example 91] cannot be ordered by IC50: over 1000 nM for the first, over 1000 nM for the second.

CN(C)Cc1ccccc1CNc1ccc2nccn2c1C(=O)O [Example 131] and Cc1c(F)cccc1CNc1ccc2nccn2c1C(=O)O [Example 20] cannot be ordered by IC50: over 1000 nM for the first, over 1000 nM for the second.

Cc1nc2cc(C(O)c3ccccc3)ccn2c1C(=O)O (centres unmarked) [Example 101] and COc1cc(CNc2ccc3nccn3c2C(=O)O)ccc1O [Example 75] cannot be ordered by IC50: over 1000 nM for the first, over 1000 nM for the second.

First: O=C(O)c1c(NCc2cc(Cl)c(F)cc2F)ccc2nccn12 [Example 99]
Second: O=C(O)c1c(NCc2ccc(F)cc2Cl)ccc2nccn12 [Example 13]
The IC50 of the first is higher: over 1000 nM for the first, at most 500 nM for the second.

O=C(O)c1c(NCc2c(Cl)cccc2Cl)ccc2nccn12 [Example 10] and Cc1cccc(Cl)c1CNc1ccc2nccn2c1C(=O)O [Example 14] cannot be ordered by IC50: over 1000 nM for the first, over 1000 nM for the second.

Going from O=C(O)c1c(NCc2ccc(F)c(Br)c2)ccc2nccn12 [Example 90] to O=C(O)c1c(NCc2ccc(F)c(F)c2)ccc2nccn12 [Example 45], the IC50 falls from over 1000 nM to at most 500 nM.

First: COc1ccc(-c2cccc(CNc3ccc4nccn4c3C(=O)O)c2)cc1 [Example 125]
Second: O=C(O)c1c(NCc2ccc3occc3c2)ccc2nccn12 [Example 29]
The IC50 of the first is higher: over 1000 nM for the first, 500 to 1000 nM for the second.

First: O=C(O)c1c(NCc2ccc(C(F)(F)F)cc2)ccc2nccn12 [Example 55]
Second: CC(C)(C)c1ccc(CNc2ccc3nccn3c2C(=O)O)cc1 [Example 25]
The IC50 of the first is lower: 500 to 1000 nM for the first, over 1000 nM for the second.

O=C(O)c1c(NCc2cc(F)cc(F)c2)ccc2nccn12 [Example 73] and Cc1ccc(CNc2ccc3nccn3c2C(=O)O)cc1F [Example 49] cannot be ordered by IC50: over 1000 nM for the first, over 1000 nM for the second.

Going from O=C(O)c1c(NCc2ccccc2-n2cccn2)ccc2nccn12 [Example 83] to O=C(O)c1c(NCc2ccccc2N2CCOCC2)ccc2nccn12 [Example 86], the IC50 rises from at most 500 nM to over 1000 nM. The first is the more potent here.

COc1ccc(CNc2ccc3nccn3c2C(=O)O)cc1Cl [Example 47] and COc1ccc(CNc2ccc3nccn3c2C(=O)O)cc1O [Example 51] cannot be ordered by IC50: 500 to 1000 nM for the first, at most 500 nM for the second.

Compared with Cc1ccc(CNc2ccc3nccn3c2C(=O)O)c(F)c1 [Example 42], Cc1cc(Cl)ccc1CNc1ccc2nccn2c1C(=O)O [Example 57] is lower in IC50: over 1000 nM for the first, 500 to 1000 nM for the second. The second is the more potent here.

O=C(O)c1c(NCc2cc(C(F)(F)F)cc(C(F)(F)F)c2)ccc2nccn12 [Example 6] and O=C(O)c1c(NCc2ccc(C(F)(F)F)c(F)c2)ccc2nccn12 [Example 48] cannot be ordered by IC50: over 1000 nM for the first, over 1000 nM for the second.

O=C(O)c1c(NCc2ccc(Cl)c(C(F)(F)F)c2)ccc2nccn12 [Example 3] and O=C(O)c1c(NCc2ccc(F)c(C(F)(F)F)c2)ccc2nccn12 [Example 62] fall in the same range of IC50: 500 to 1000 nM for the first, 500 to 1000 nM for the second.

Going from N#Cc1ccc(CNc2ccc3nccn3c2C(=O)O)cc1 [Example 59] to CCCCc1ccc(CNc2ccc3nccn3c2C(=O)O)cc1 [Example 65], the IC50 rises from at most 500 nM to over 1000 nM.

COc1cc(Cl)ccc1COc1ccc2nccn2c1C(=O)O [Example 120] and COc1cc(Cl)ccc1CNc1cc(C(=O)O)n2ccnc2c1 [Example 122] cannot be ordered by IC50: over 1000 nM for the first, over 1000 nM for the second.

COc1ccc(Cl)cc1CNc1ccc2ncc(C(=O)O)n2c1 [Example 112] and COc1cc(C)ccc1-c1ccc2ncc(C(=O)O)n2c1 [Example 116] cannot be ordered by IC50: over 1000 nM for the first, over 1000 nM for the second.

Cc1ccc(CNc2ccc3nccn3c2C(=O)O)c(F)c1F [Example 33] and Cc1ccc(Cl)c(CNc2ccc3nccn3c2C(=O)O)c1F [Example 70] cannot be ordered by IC50: over 1000 nM for the first, over 1000 nM for the second.

O=C(O)c1c(NCc2ccc(Cl)c(F)c2)ccc2nccn12 [Example 58] and Cc1ccc(F)c(CNc2ccc3nccn3c2C(=O)O)c1Cl [Example 38] cannot be ordered by IC50: over 1000 nM for the first, over 1000 nM for the second.

Work on CC(O)c1cc(C(=O)O)n2ccnc2c1 (centres unmarked) [Example 106] yielded an IC50 of over 1000 nM.

Source: US20190256509A1, “HISTONE DEMETHYLASE INHIBITORS” (CHRYSALIS, INC., priority 2016, published 2019)
